{"source": "patent US10835500B2", "about": "“Medicament for accelerated wound healing” (Symrise AG, priority 2014, dated 2020)", "key": {"HaCaT cells": {"tested_on": "HaCaT cells", "test": "Calcium imaging in HaCaT cells", "assay_type": "cell-based, human", "settings": "for effect of blocker on Sandalore-induced calcium signals: HaCaT cells, EGTA 10 mM calcium-free, SQ-22536 100 μM, MDL-12330A 40 μM, U-73122 10 μM, L-cis-diltiazem 150 μM; for increase of the first amplitude induced by Sandalore after preincubation with gap junction blocker: HaCaT, 1-octanol 500 μM or carbenoxolone 10 μM, Sandalore 500 μM", "method": "In the fourth application, saturation occurred at approx. 500 μM (FIG. 9d). The ECR50R value was 430 μM of Sandalore® in the first application and 112 μM of Sandalore® in the fourth application.\nThe Sandalore®-induced signal cascade in HaCaT cells and primary keratinocytes was pharmacologically characterized using the calcium imaging technique and specific blockers of signal cascade proteins. An investigation was first conducted in order to determine whether the calcium signals are caused by calcium inflow from the extracellular space. For this purpose, a calcium-free extracellular solution was used with a calcium chelator (EGTA) added. […] In order to investigate the role of adenylyl cyclase, the specific blockers SQ-22536 and MDL-12330A were used. […] The efficacy of the blockers was tested in this case with histamine, which activated the PLC signalling pathway (FIG. 11c). […]\nIn order to characterize the antagonists, HaCaT cells were first repeatedly stimulated with Sandalore® (1 mM). On the third application, costimulation (1:1) with Sandalore® and one of the antagonists took place. […] Based on this, dose-dependent characterization of inhibition was to be carried out. For this purpose, Sandalore® and the antagonists were costimulated with different concentrations.\n(§1) Effect of the OR2AT4 ligand Sandalore® on intracellular calcium concentration of cultivated keratinocytes. […] 100 μM of ATP was used at the end of each measurement as a positive control stimulus. Right: Quantitative evaluation of calcium signals in 4-time application of Sandalore® (500 μM). Shown are the mean values of the individual applications including standard error. Mann-Whitney U test. *: p<0.05. C) and D): dose-dependent activation of HaCaT cells in calcium imaging experiments. Shown are the mean amplitudes including standard error at various concentrations in the first (C) and fourth (D) Sandalore® application. Number of cells measured: 0.0125 mM (39), 0.025 mM (30), 0.1 mM (46), 0.5 mM (34), 1 mM (63), 2 mM (41), 10 mM (36).\n(§2) A) Representative calcium imaging traces of HaCaT cells (left) and primary keratinocytes (right) incubated with the gap junction blocker 1-octanol (500 μM) and then repeatedly stimulated with Sandalore® (500 μM, horizontal bars) (blue trace). […] 100 μM of ATP was used at the end of each measurement as a positive control stimulus. Quantitative evaluation of HaCaT cells (B) and primary keratinocytes (C) incubated with the gap junction blockers 1-octanol (500 μM) or carbenoxolone (10 μM) and then repeatedly stimulated with Sandalore® (500 μM) or Lyral (1 mM) in calcium imaging experiments. Shown are the mean values of the individual applications including standard error relative to the control measurements (Sandalore® application without blocker). Mann-Whitney U test. Number of cells measured: Sandalore®+1-octanol (HaCaT (110), keratinocytes (26)); Sandalore®+carbenoxolone: HaCaT (74); Lyral+carbenoxolone: HaCaT (43). ***: p<0.001.\nPharmacological characterization of Sandalore®-induced signal cascade in human keratinocytes. A)-D). Shown are representative calcium imaging traces of primary keratinocytes in the presence of a blocker (blue). The horizontal bars correspond to the application times. 100 μM of ATP was used at the end of each measurement as a positive control stimulus. A) Measurement with calcium-free extracellular solution (+10 mM EGTA). B) Measurement with the adenylyl cyclase blocker SQ-22536 (100 μM). C) Use of the phospholipase-C blocker U-73122 (10 μM). 100 μM of histamine was taken as a positive control. D) Measurement with the CNG channel blocker L-cis-diltiazem (150 μM). E) Overview of pharmacological measurement of HaCaT cells and primary keratinocytes (Kera). The mean amplitudes relative to the control measurements (dashed line) are indicated. MDL-12330A (40 μM). […]"}, "primary keratinocytes": {"tested_on": "primary keratinocytes", "test": "Calcium imaging in primary keratinocytes", "assay_type": "cell-based, human", "settings": "for effect of blocker on Sandalore-induced calcium signals: primary keratinocytes, EGTA 10 mM calcium-free, SQ-22536 100 μM, MDL-12330A 40 μM, U-73122 10 μM, L-cis-diltiazem 150 μM", "source_text": "The Sandalore®-induced signal cascade in HaCaT cells and primary keratinocytes was pharmacologically characterized using the calcium imaging technique and specific blockers of signal cascade proteins. An investigation was first conducted in order to determine whether the calcium signals are caused by calcium inflow from the extracellular space. For this purpose, a calcium-free extracellular solution was used with a calcium chelator (EGTA) added. […] In order to investigate the role of adenylyl cyclase, the specific blockers SQ-22536 and MDL-12330A were used. […] The efficacy of the blockers was tested in this case with histamine, which activated the PLC signalling pathway (FIG. 11c).\nas §1, §2\nPharmacological characterization of Sandalore®-induced signal cascade in human keratinocytes. A)-D). Shown are representative calcium imaging traces of primary keratinocytes in the presence of a blocker (blue). The horizontal bars correspond to the application times. 100 μM of ATP was used at the end of each measurement as a positive control stimulus. A) Measurement with calcium-free extracellular solution (+10 mM EGTA). B) Measurement with the adenylyl cyclase blocker SQ-22536 (100 μM). C) Use of the phospholipase-C blocker U-73122 (10 μM). 100 μM of histamine was taken as a positive control. D) Measurement with the CNG channel blocker L-cis-diltiazem (150 μM). E) Overview of pharmacological measurement of HaCaT cells and primary keratinocytes (Kera). The mean amplitudes relative to the control measurements (dashed line) are indicated. MDL-12330A (40 μM). EGTA: calcium-free Ringer (HaCaT n=46, Kera n=52), SQ: SQ-22536 (HaCaT n=60, Kera n=26), MDL: MDL-12330A (HaCaT n=69, Kera n=24), U-73122 (HaCaT n=41, Kera n=25), L-cis-D.: L-cis-diltiazem (HaCaT n=41, Kera n=25). Mann-Whitney U test. ***: p<0.001. F) Determination of the cAMP contents of HaCaT cells after stimulation with Sandalore® by means of cAMP-Glo™ assays. The dots show the mean cAMP content including standard error after 10-minute Sandalore® stimulation (1 μM-10,000 μM). Significance was determined between HaCaT cells stimulated with Sandalore® and stimulated with an equivalent volume of DMSO (0.2%). Kruskal-Wallis Test with multiple comparison; n=3 experiments. *: p<0.05."}, "[1]": {"biological_target": "T1, recombinantly expressed OR2AT4 (Homo sapiens, UniProt A6NND4)", "T1 construct": "expressed in transfected cells; host or cells: Hana3A cells, transient transfection with pcDNA3-OR2AT4 by the calcium phosphate method", "T1 sequence (A6NND4 1-320)": "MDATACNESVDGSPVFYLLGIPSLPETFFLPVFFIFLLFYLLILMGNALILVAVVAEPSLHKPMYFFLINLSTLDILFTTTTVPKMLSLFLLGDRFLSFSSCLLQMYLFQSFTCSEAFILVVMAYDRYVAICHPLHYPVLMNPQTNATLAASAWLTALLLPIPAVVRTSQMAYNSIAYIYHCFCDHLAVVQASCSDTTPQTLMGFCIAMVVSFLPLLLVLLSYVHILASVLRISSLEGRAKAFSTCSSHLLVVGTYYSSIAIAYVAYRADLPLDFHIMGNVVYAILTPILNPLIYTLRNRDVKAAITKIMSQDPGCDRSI", "test": "Calcium imaging of transiently OR2AT4-transfected Hana3A cells", "assay_type": "cell-based", "method": "Hana3A cells expressing stable endogenous olfactory transduction factors, which specifically target the incorporation of ORs into the cell membrane and thus improve activation capacity, were used as a heterologous expression system. Moreover, the 20 first N-terminal amino acids of rhodopsins (Rho-tag) were added before the N-terminus of the coding sequence of the OR, also in order to support heterologous expression.\nA method established at the Department of Cell Physiology of Ruhr University Bochum for deorphanization studies is calcium imaging, in which activation of an OR by an odorant is visualized by a change in the intracellular calcium concentration of transfected cells using a fluorescent dye [cf. Wetzel et al. in: J. Neurosci. 19, pp. 7426-7433 (1999); Spehr et al. in: Science 299, pp. 2054-2058 (2003); Neuhaus et al. in: J. Biol. Chem. 284, pp. 16218-16225 (2009)]. In this method, the Hana3A cells are briefly (20 s) stimulated with an odorant and selected for odorant screenings of high concentrations (up to 1 mM) in order to confirm activation of ORs weakly expressed in Hana3A cells.\nThe activation of OR2AT4 by Sandalore® was first investigated by the calcium imaging method.\nOdorants can not only activate a receptor, but can also act as antagonists to an OR.\nDetermination of receptive field of recombinantly expressed OR2AT4. […] As a control, untransfected Hana3A cells were simulated with Sandalore®. 100 μM of ATP was used at the end of each measurement as a positive control stimulus. […] The mean response rate including standard error of the cells is shown relative to the Ringer control. […] Isobornyl.: isobornyl cyclohexanol; S. öl: sandalwood oil. Kruskal-Wallis test with multiple comparison. *: p<0.05. […] Significance was determined between Hana3A cells transfected with OR2AT4-pcDNA3 and pcDNA3 without an insert. The dots show mean normalized luciferase-activity including standard error. Mann-Whitney U test; n=3 experiments. *: p<0.05; **: p<0.01; ***: p<0.001.\nAntagonists of recombinantly expressed OR2AT4. […] 100 μM of ATP was used at the end of each measurement as a positive control stimulus. […] The mean response rate including standard error of the cells is shown relative to the Ringer control. Number of measurements: Ringer (23), Sandalore® (22), Sandalore®+dimetol (11), dimetol (11), Phenirat (14), Sandalore®+Phenirat (22), Oxyphenylon (12), and Sandalore®+Oxyphenylon (20). S: Sandalore®. Kruskal-Wallis test with multiple comparison. *: p<0.05."}}}
{"compound": "O=C(O)CN(CCOCCOCCN(CC(=O)O)CC(=O)O)CC(=O)O", "note": "[EGTA]", "values": [{"measurement": "effect of blocker on Sandalore-induced calcium signals", "setting": "HaCaT cells", "value": "significantly reduced"}, {"measurement": "effect of blocker on Sandalore-induced calcium signals", "setting": "primary keratinocytes", "value": "significantly reduced"}]}
{"compound": "COc1ccc2c(c1)CC[C@@H]1[C@@H]2CC[C@]2(C)[C@@H](NCCCCCCN3C(=O)C=CC3=O)CC[C@@H]12", "note": "[U-73122]", "values": [{"measurement": "effect of blocker on Sandalore-induced calcium signals", "setting": "HaCaT cells", "value": "no effect"}, {"measurement": "effect of blocker on Sandalore-induced calcium signals", "setting": "primary keratinocytes", "value": "no effect"}]}
{"compound": "CC(C)(O)CCCC1=CCC(C=O)CC1", "note": "(stereo not shown) [Lyral]", "values": [{"measurement": "odorant-induced calcium signals in skin cells", "setting": "HaCaT cells; Lyral 1 mM", "value": "induces calcium signals in skin cells"}]}
{"compound": "CC1(C)[C@@H](OC(=O)CCC(=O)O)CC[C@]2(C)[C@H]3C(=O)C=C4[C@@H]5C[C@@](C)(C(=O)O)CC[C@]5(C)CC[C@@]4(C)[C@]3(C)CC[C@@H]12", "note": "[carbenoxolone]", "values": [{"measurement": "increase of the first amplitude induced by Sandalore after preincubation with gap junction blocker", "setting": "HaCaT cells", "value": "the same result"}, {"measurement": "effect on the Lyral-induced response pattern", "setting": "HaCaT cells; pre-incubation with blocker 10 μM, Lyral 1 mM", "value": "No effect"}]}
{"compound": "Cl.c1ccc(C2CCCC2NC2=NCCCCCCCCCCC2)cc1", "note": "(stereo not shown) [MDL-12330A]", "values": [{"measurement": "effect of blocker on Sandalore-induced calcium signals", "setting": "HaCaT cells", "value": "significant reduction"}, {"measurement": "effect of blocker on Sandalore-induced calcium signals", "setting": "primary keratinocytes", "value": "significant reduction"}]}
{"compound": "CC1=CCC(/C=C\\C(C)C(C)O)C1(C)C", "note": "(stereo not shown) [Ebanol]", "values": [{"measurement": "response rate of the Hana3A cells relative to the Ringer control", "setting": "[1]; 1 mM odorant, 20 s stimulation, OR2AT4-transfected Hana3A cells", "value": "only Brahmanol showed an increased response rate"}]}
{"compound": "CCCCCCCCO", "note": "[1-octanol]", "values": [{"measurement": "increase of the first amplitude induced by Sandalore after preincubation with gap junction blocker", "setting": "HaCaT cells", "value": "approx. 400%"}, {"measurement": "increase of the first amplitude induced by Sandalore after preincubation with gap junction blocker", "setting": "primary keratinocytes; keratinocytes, 1-octanol 500 μM, Sandalore 500 μM", "value": "~1000", "unit": "%"}]}
{"compound": "CC(C)CCCC(C)(C)O", "note": "[dimetol]", "values": [{"measurement": "effect on Sandalore-induced calcium signals in coapplication", "setting": "[1]; coapplication with Sandalore 1:1, 1 mM respectively", "value": "no effect"}, {"measurement": "effect of the odorant alone on the Hana3A cells", "setting": "[1]; odorant alone, 1 mM", "value": "no effect"}, {"measurement": "effect on Sandalore-induced calcium signals on coapplication", "setting": "HaCaT cells; third application, costimulation 1:1 with Sandalore 1 mM", "value": "only slightly reduced"}]}
{"compound": "Nc1ncnc2c1ncn2C1CCCO1", "note": "(stereo not shown) [SQ-22536]", "values": [{"measurement": "effect of blocker on Sandalore-induced calcium signals", "setting": "HaCaT cells", "value": "significant reduction"}, {"measurement": "effect of blocker on Sandalore-induced calcium signals", "setting": "primary keratinocytes", "value": "significant reduction"}]}
{"compound": "COc1ccc([C@H]2Sc3ccccc3N(CCN(C)C)C(=O)[C@H]2OC(C)=O)cc1", "note": "(relative stereo) [L-cis-diltiazem]", "values": [{"measurement": "effect of blocker on Sandalore-induced calcium signals", "setting": "HaCaT cells", "value": "significantly reduced"}, {"measurement": "effect of blocker on Sandalore-induced calcium signals", "setting": "primary keratinocytes", "value": "significantly reduced"}]}
